# Experiments:
# [1] = Extinction coefficient by UV/Vis; format: physicochemical; conditions: for ε(methanol): in M-1·cm-1 (unit assumed)
# Procedure: Four samples of increasing amounts of a test compound of Formula I (between 3 mg and 11 mg) were put into separate 10 ml flasks and dissolved in methanol. Each of the solutions and one control sample (containing no test compound) were diluted to volume. The absorption at 475 nm was measured by UV/Vis and recorded for each of the five samples. The extinction coefficient for each sample was determined accordingly.
# The extinction coefficient for the test compound at 475 nm was determined by averaging the extinction coefficient for the four samples (not including the control). The above steps were repeated (at 733 nm) to determine the extinction coefficient for the test compound at 733 nm. When determining the extinction coefficient of aggregated test compounds LuTex acetate, cholate or deoxycholate, the extinction coefficient at 733 nm is not measured. Instead, the above steps were repeated substituting 4% acetic acid/methanol for methanol.
# [2] = Octanol/water partition coefficient; format: physicochemical
# Procedure: The partition coefficient was measured using an adaptation of the procedure outlined in Drug Stability: Principles and Practices (AAI, Inc. Wilmington, N.C., 2nd Edition, 1995). A 10 ml solution of 10 mg/ml of the test compound of Formula I dissolved in deionized water was placed in a separator funnel, to which 10 ml of 1-octanol was added. The combined mixture was stirred. The mixture was left to separate and the absorption of the compound was measured in the water phase and in the octanol phase by UV/Vis at 413-417 nm (413-417 offers the closest match in absorbance between the octanol phase and the water phase. The octanol water partition coefficient is determined by the formula: […]
# The above steps were then repeated using a 10 ml sample of test compound at 1.0 mg/ml.
# [3] = Solution pH in deionized water; format: physicochemical; conditions: H2O
# Procedure: The test compound was mixed in 5 ml of deionized water to achieve a 2 mg/ml solution. The solution pH was measured using a Beckman pH meter.
# [4] = Plasma concentration after injection in atherosclerotic rabbits; format: in vivo, NZW rabbits; conditions: rabbit, 10 mg/kg injected, 2 mg/ml solution
# Procedure: Plasma pK and biodistribution of the different test compounds of Formula I in plaque are determined and compared with the plasma pK and biodistribution in normal arterial walls. Sixteen normal male NZW rabbits, each weighing 3.5-4.0 kg are obtained from R&R Rabbitry in Stanwood Oreg. Each rabbit is given an intramuscular injection of Ketamine/Rompun [(8.4 mg/kg)/(1.2 mg/kg)] and allowed to relax until the anesthetic takes effect. To induce deep anesthesia, the rabbits then receive a second dose of Ketamine/Rompun [(8.4 mg/kg)/1.2 mg/kg)] via intravenous injection. To expose the abdomen and back legs, each rabbit is shaved with a size 40 blade. Their eyes are coated with lubricant eye ointment (Artificial Tears).
# A femoral artery cut down is performed on the right side of the rabbits. Lidocaine (2%) is injected subcutaneously around the femoral artery as a local anesthetic and also applied topically to prevent spasms. A No.4 French Fogarty balloon embolectomy catheter is inserted retrograde 15 cm into the abdominal aorta. The balloon is inflated with 0.5-0.75 ml of hypaque contrast and pulled 3.5 cm distally toward the femoral artery six times. The catheter is then withdrawn. […]
# A 3 ml blood sample is taken from each of the rabbits and the cholesterol level for each sample is determined and recorded. […]
# The clearance rate of the test compound is also particularly important to measure. Plasma samples from each of the test compounds (see part A of this example) are mixed with 10 mM Triton X-100 and the fluorescence optimum is measured at 745 nm by scanning between 700-800 nm using a 450 nm excitation. A standard curve is run to insure that the fluorescence of the samples lies on the linear portion of the curve. The entire fluorescence emission spectrum is observed by using both a monochromator and CCD array. This permits differentiating between the peak at 745 nm and any possible extraneous fluorescence that might have a different optimum, and tail off into the 745 nm region. Test compound accumulation is expressed as μg drug/g tissue (wet weight) or μg/ml in plasma.
# [5] = Solubility in H2O (deionized water)
# Procedure: This mixture was then shaken, and 1.5 ml of the supernatant removed by a syringe equipped with a 0.22 μm filter unit. After discarding the first 1 mL of the filtrate, the remaining 0.5 mL was collected and saved. 0.1 ml of the saved filtrate was added to a 25 ml flask and diluted with 4% Acetic Acid/Methanol solution to volume. The absorption of the diluted solution at 475 nm was measured by UVN is at 1, 4, and 24 hours after the solutions had been shaken as described above.
Substance,"ε(4% acetate/methanol) ([1]; 4% acetate/methanol, wavelength not given) [M⁻¹ cm⁻¹]","ε(methanol) ([1]; wavelength not printed (aggregated compound, 733 nm not measured))",K (octanol/water) ([2]; 0.05 mg/ml),pH(octanol/water) ([2]; 0.05 mg/ml),pH [3],ε(methanol) ([1]; at 475 nm),ε(methanol) ([1]; at 733 nm),K (octanol/water) ([2]; 0.5 mg/ml),pH(octanol/water) ([2]; 0.5 mg/ml),Plasma Concentration ([4]; 1 Hour post injection) [ng/mL],Plasma Concentration ([4]; 5 Hours post injection) [ng/mL],Plasma Concentration ([4]; 24 Hours post injection) [ng/mL],solubility in deionized water [5] [mg/mL]
"The lutetium (III) complex of: 4,5-diethyl-10,23-dimethyl-9,24-bis(3-hydroxypropyl)-16,17-bis[2-[2-(2-methoxyethoxy)ethoxy]ethoxy]pentaazapentacyclo[20.2.1.1^3,6.1^8,11.0^14,19]-heptacosa-1,3,5,7,9,11 (27),12,14,16,18,20,22(25),23-tridecaene bis deoxycholate [LuTex bis deoxycholate]",135000,136000,–,–,–,–,–,–,–,–,–,–,–
"The lutetium (III) complex of: 4,5-diethyl-10,23-dimethyl-9,24-bis(3-hydroxypropyl)-16,17-bis[2-[2-(2-methoxyethoxy)ethoxy]ethoxy]pentaazapentacyclo[20.2.1.1^3,6.1^8,11.0^14,19]-heptacosa-1,3,5,7,9,11(27),12,14,16,18,20,22(25), 23-tridecaene bis benzoate [LuTex bis benzoate]",–,–,0.34,6.6,6.1,122800,40600,–,–,–,–,–,–
"The lutetium (III) complex of: 4,5-diethyl-10,23-dimethyl-9,24-bis(3-hydroxypropyl)-16,17-bis[2-[2-(2-methoxyethoxy)ethoxy]ethoxy]pentaazapentacyclo[20.2.1.1^3,6.1^8,11.0^14,19]-heptacosa-1,3,5,7,9,11(27),12,14,16,18,20,22(25), 23-tridecaene bis formate [LuTex bis formate]",–,–,0.02,5.6,5.5,126400,41700,0.02,5.1,3900,500,300,2 to 2.5
"lutetium complex of 4,5-diethyl-10,23-dimethyl-9,24-bis(3-hydroxypropyl)-16,17-bis[2-[2-(2-methoxyethoxy)ethoxy]ethoxy]pentaazapentacyclo-[20.2.1.1^3,6.1^8,11.0^14,19]heptacosa-1,3,5,7,9,11(27),12,14,16,18,20,22(25),23-tridecaene bis gluconate [LuTex bis gluconate]",–,–,–,–,–,–,–,–,–,–,–,–,50 to 80
